Experimental data: BigSolDB 2.1

CC(=O)C1C(=O)C=C(C)OC1=O (centres undefined)
Conditions | solubility (mole fraction)
in 2-butanone, 288.35 K | 0.0125
in 2-butanone, 292.15 K | 0.0153
in 2-butanone, 296.45 K | 0.0165
in 2-butanone, 300.35 K | 0.0196
in 2-butanone, 304.05 K | 0.0227
in 2-butanone, 308.05 K | 0.0285
in 2-butanone, 312.15 K | 0.0315
in 2-butanone, 315.75 K | 0.037
in DMAc, 288.35 K | 0.0941
in DMAc, 292.15 K | 0.111
in DMAc, 296.45 K | 0.12
in DMAc, 300.45 K | 0.135
in DMAc, 304.45 K | 0.15
in DMAc, 308.25 K | 0.168
in DMAc, 312.15 K | 0.19
in DMAc, 316.35 K | 0.205
in DMF, 288.5 K | 0.0744
in DMF, 292.45 K | 0.0857
in DMF, 296.35 K | 0.093
in DMF, 299.95 K | 0.105
in DMF, 304.45 K | 0.123
in DMF, 307.85 K | 0.139
in DMF, 312.35 K | 0.162
in DMF, 315.85 K | 0.181
in DMSO, 288.15 K | 0.0267
in DMSO, 292.15 K | 0.0314
in DMSO, 296.15 K | 0.0383
in DMSO, 300.15 K | 0.0462
in DMSO, 304.15 K | 0.0544
in DMSO, 308.15 K | 0.0599
in DMSO, 312.15 K | 0.0738
in DMSO, 316.15 K | 0.0874
in acetone, 288.15 K | 0.0477
in acetone, 291.85 K | 0.0547
in acetone, 296.15 K | 0.0587
in acetone, 300.25 K | 0.0695
in acetone, 304.15 K | 0.0812
in acetone, 308.15 K | 0.0964
in acetone, 312.05 K | 0.111
in acetone, 316.25 K | 0.13
in acetonitrile, 288.35 K | 0.039
in acetonitrile, 292.35 K | 0.0489
in acetonitrile, 296.25 K | 0.0557
in acetonitrile, 300.35 K | 0.0634
in acetonitrile, 304.05 K | 0.0733
in acetonitrile, 308.15 K | 0.0887
in acetonitrile, 312.65 K | 0.107
in acetonitrile, 316.25 K | 0.123
in ethanol, 288.25 K | 0.00512
in ethanol, 291.95 K | 0.00652
in ethanol, 296.25 K | 0.00812
in ethanol, 300.35 K | 0.00941
in ethanol, 303.65 K | 0.0109
in ethanol, 308.55 K | 0.0135
in ethanol, 312.65 K | 0.0176
in ethanol, 316.15 K | 0.0217
in ethyl acetate, 288.45 K | 0.0499
in ethyl acetate, 292.45 K | 0.0571
in ethyl acetate, 295.95 K | 0.0646
in ethyl acetate, 300.25 K | 0.0714
in ethyl acetate, 304.05 K | 0.081
in ethyl acetate, 307.95 K | 0.0938
in ethyl acetate, 312.25 K | 0.109
in ethyl acetate, 316.35 K | 0.128
in ethyl formate, 288.05 K | 0.0536
in ethyl formate, 291.95 K | 0.061
in ethyl formate, 296.15 K | 0.067
in ethyl formate, 300.05 K | 0.0765
in ethyl formate, 304.15 K | 0.0894
in ethyl formate, 308.45 K | 0.104
in ethyl formate, 312.45 K | 0.119
in ethyl formate, 315.85 K | 0.135
in isopropanol, 288.05 K | 0.00448
in isopropanol, 292.35 K | 0.0056
in isopropanol, 296.55 K | 0.00709
in isopropanol, 300.15 K | 0.00876
in isopropanol, 304.65 K | 0.0105
in isopropanol, 308.15 K | 0.0127
in isopropanol, 312.35 K | 0.0168
in isopropanol, 315.65 K | 0.0202
in methanol, 288.05 K | 0.00588
in methanol, 292.35 K | 0.00716
in methanol, 296.05 K | 0.00781
in methanol, 300.15 K | 0.0104
in methanol, 303.95 K | 0.0113
in methanol, 308.55 K | 0.0149
in methanol, 312.15 K | 0.0174
in methanol, 316.05 K | 0.022
in n-pentanol, 287.75 K | 0.00604
in n-pentanol, 291.95 K | 0.00758
in n-pentanol, 296.25 K | 0.00959
in n-pentanol, 300.35 K | 0.0117
in n-pentanol, 304.15 K | 0.0148
in n-pentanol, 308.35 K | 0.0189
in n-pentanol, 312.15 K | 0.0233
in n-pentanol, 315.95 K | 0.0284
in n-propanol, 287.95 K | 0.00523
in n-propanol, 292.65 K | 0.00657
in n-propanol, 296.35 K | 0.00836
in n-propanol, 300.55 K | 0.00974
in n-propanol, 304.35 K | 0.0118
in n-propanol, 308.15 K | 0.0143
in n-propanol, 312.65 K | 0.0187
in n-propanol, 316.35 K | 0.0224
